# Key:
# Format in all cases: in vivo, human
# [1] = system: patients with downbeat nystagmus; assay: Case studies, clinical examination (visual acuity, posturography)
# From the text: The patient was diagnosed with downbeat nystagmus: the patient was severely impaired by blurred vision (oscillopsia) due to the nystagmus, and experienced difficulties while reading and writing. The patient's visual acuity was: right 0.75, left 0.67, binocular 0.83, and the downbeat nystagmus was documented by video-oculography. […] […] […] The patient was able to suppress the nystagmus by visual fixation. In addition, the patient's spatial orientation was improved.
# [2] = system: patient with frontotemporal dementia with parkinsonism; assay: Case study, clinical examination; settings: Ex. 9, frontotemporal dementia with parkinsonism; L-Dopa and Ropinirol together
# From the text: After approximately one month of acetyl-leucine treatment, medication was stopped and the patient was re-examined 13 days later.
# [3] = system: patients with multiple system atrophy Parkinson type (MSA-P); assay: Case studies, clinical examination
# From the text: Medication was stopped. […] The patient evaluated after one month on acetyl-DL-leucine. […] Episodes of mental confusion completely disappeared. The patient's cognitive structure seemed much clearer and straighter. […] The patient's spouse supported continuing the medication.
# [4] = system: patient with corticobasal syndrome; assay: Case study, clinical examination; settings: Ex. 10, corticobasal syndrome
# Method: Gait analysis was performed before treatment commenced. After 20 days of acetyl-leucine treatment, the patient was re-examined. […] After 8 weeks of acetyl-leucine treatment, medication was stopped and the patient was re-examined 6 days later.
# [5] = system: patients with progressive supranuclear palsy; assay: Case studies, clinical examination
# Method: After 27 days of acetyl-leucine treatment, medication was stopped and the patient was re-examined 60 days later. […] Gait analysis was performed before treatment commenced. After 17 days of treatment, medication was stopped and the patient was re-examined 4 days later. […] Gait analysis was performed before treatment commenced. After three weeks of treatment, medication was stopped and the patient was re-examined.
# [6] = system: patient with Lewy Body dementia; assay: Case study, clinical evaluation; settings: Ex. 17, Lewy Body dementia; Levodopa 100 mg 4× daily and Quetiapin 25 mg at night together
# Method: The patient started taking acetyl-leucine (3 g/day for one week; 5 g/day thereafter) and was evaluated after four weeks. […] Medication was reduced to 3 g/day, and the patient was instructed to stop medication about two weeks later.
# [7] = system: patients with amyotrophic lateral sclerosis (ALS); assay: Case studies, medical examination; settings: Ex. 7 Patient 1, ALS; before acetyl-DL-leucine
# From the text: The results were documented by video.
smiles,measurement,setting,value
Nc1ccncc1 [4-aminopyridine],response to treatment,"[1]; Ex. 12 Patient 1, downbeat nystagmus, 10 mg twice daily for four weeks",did not give rise to any benefit
same,response to treatment,"[1]; Ex. 12 Patient 2, downbeat nystagmus",did not benefit
N[C@@H](Cc1ccc(O)c(O)c1)C(=O)O [L-Dopa],response to treatment,[2],little improvement
same,response to treatment,"[3]; Ex. 13 Patient 1, MSA-P, 100/25 mg 3× daily",discreet Levodopa response
same,tolerability,"[3]; Ex. 13 Patient 3, MSA-P",suspended due to side effects
same,response to treatment,[4],no improvement
same,response to treatment,"[5]; Ex. 11 Patient 1, progressive supranuclear palsy",little improvement
same,response to treatment,"[5]; Ex. 11 Patient 2, PSP",no levodopa response
same,response to treatment,"[5]; Ex. 11 Patient 3, PSP",no levodopa response
same,response to treatment,"[5]; Ex. 11 Patient 4, PSP",slight levodopa response
same,response to treatment,[6],improved the symptomatology
OCCOCCN1CCN(C2=Nc3ccccc3Sc3ccccc32)CC1 [Quetiapin],response to treatment,[6],improved the symptomatology
CCCN(CCC)CCc1cccc2c1CC(=O)N2 [Ropinirol],response to treatment,[2],little improvement
Nc1nc2ccc(OC(F)(F)F)cc2s1 [Riluzol],clinical symptomatology,[7],clinical symptomatology remained unchanged
